Data on one molecule can be found in patent publication US11274115B2, “Imidazoquinoline derivatives and their use in therapy” (GLAXOSMITHKLINE BIOLOGICALS SA, priority 2016, dated 2022).

Molecules are shown by their SMILES. Read-outs that look alike come from different tables or passages of the source.

Holding throughout (assay type): cell-based
For assay [1], the system named is human peripheral blood mononuclear cells (hPBMCs). The assay is described as follows: TNF-α induction in hPBMCs. The note with it: 24 h. The protocol: (§1) Assays to Measure Cytokine Induction
(§2) Test compounds were evaluated for cytokine induction in human peripheral blood mononuclear cells (hPBMCs).
(§3) Primary human PBMCs were isolated from fresh blood from healthy donors via Ficoll gradient separation and plated at 0.5×10^6 cells/well in 96-well tissue culture plates (RPMI-1640 plus 10% FBS). hPBMCs were maintained with RPMI-1640 culture media (Invitrogen, Grand Island, N.Y.), antibiotics (Invitrogen) and 10% FBS (Sigma).
(§4) Incubation and Assays for IFN-γ, IFN-α and TNF-α
(§5) hPBMCs were stimulated for 24 h with aqueous formulations of test compounds. Culture supernatants were analyzed for TNF-α and IFN-γ induction using multiplex kits (FluoroKine multiplex kits from R&D Systems, Minneapolis, Minn.) and for IFN-α induction using human IFN-α VeriKine ELISA kit (Pestka Biomedical Laboratories, Inc., Piscataway, N.J.).

Another assay concerns the target T1, human TLR8 (Homo sapiens, UniProt Q9NR97).
T1 construct: host or cells: HEK293
T1 sequence (Q9NR97 27-1041): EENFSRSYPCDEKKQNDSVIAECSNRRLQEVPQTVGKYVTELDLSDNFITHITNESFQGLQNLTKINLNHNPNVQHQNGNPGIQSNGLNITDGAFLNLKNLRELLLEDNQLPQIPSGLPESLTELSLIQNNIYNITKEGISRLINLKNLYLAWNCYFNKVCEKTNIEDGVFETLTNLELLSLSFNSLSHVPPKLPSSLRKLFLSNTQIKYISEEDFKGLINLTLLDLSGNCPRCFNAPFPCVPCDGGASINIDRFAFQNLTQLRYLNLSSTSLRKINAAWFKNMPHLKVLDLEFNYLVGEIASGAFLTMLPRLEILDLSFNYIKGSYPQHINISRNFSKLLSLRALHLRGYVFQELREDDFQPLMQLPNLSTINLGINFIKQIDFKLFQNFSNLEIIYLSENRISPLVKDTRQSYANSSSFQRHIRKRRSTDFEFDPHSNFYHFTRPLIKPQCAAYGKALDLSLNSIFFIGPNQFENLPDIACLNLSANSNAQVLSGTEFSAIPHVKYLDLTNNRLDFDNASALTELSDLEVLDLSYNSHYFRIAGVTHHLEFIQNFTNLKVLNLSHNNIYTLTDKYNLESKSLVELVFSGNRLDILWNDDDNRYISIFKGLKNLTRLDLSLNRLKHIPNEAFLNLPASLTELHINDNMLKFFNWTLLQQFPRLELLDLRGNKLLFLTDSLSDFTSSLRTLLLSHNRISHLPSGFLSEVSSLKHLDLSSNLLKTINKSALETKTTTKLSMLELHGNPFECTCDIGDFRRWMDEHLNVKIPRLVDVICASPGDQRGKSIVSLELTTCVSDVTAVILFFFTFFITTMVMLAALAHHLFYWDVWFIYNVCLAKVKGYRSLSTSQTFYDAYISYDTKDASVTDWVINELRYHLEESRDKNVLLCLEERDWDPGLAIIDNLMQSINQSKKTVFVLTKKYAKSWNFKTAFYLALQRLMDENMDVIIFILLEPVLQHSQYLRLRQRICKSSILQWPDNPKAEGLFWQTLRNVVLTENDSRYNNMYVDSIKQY
The assay is described as follows: hTLR8 agonist reporter assay in HEK293 cells (NFκB-SEAP). The note with it: for EC50: read-out: hTLR8 ED50. The protocol: Assay for hTLR7 and hTLR8 Agonist Activity in HEK-293 Cells
Determination of TLR agonist activity was performed using the HEK293 […]. This assay measures TLR7 and TLR8 selectivity and potency of the compounds tested. HEK293 cells expressing human TLR7 or TLR8 and NFκB responsive Secreted Embryonic Alkaline Phosphatase (SEAP) reporter gene were obtained from InvivoGen (San Diego, Calif.). These cells were maintained in culture media of Dulbecco's Modified Eagle Medium (DMEM) (Invitrogen, Grand Island, N.Y.), 10% Fetal Bovine Serum (FBS) (Sigma, St. Louis, Mo.) and selection antibiotics (Invitrogen, and Invivogen). HEK293 stably transfected with human TLR7 (hTLR7) or human TLR8 (hTLR8) were stimulated for 24 h with aqueous formulations of test compounds and culture supernatants were analyzed for NFκB activation using the colorimetric SEAP detection kit QuantBlue (InvivoGen).
A general note: Reporter assays use an easily measured gene product as a stand-in for the process of interest.

The test system of assay [2] is human peripheral blood mononuclear cells (hPBMCs). The assay is described as follows: IFN-α induction in hPBMCs. The note with it: 24 h. The protocol:
as §1, §2, §3, §4, §5

For `CCCCCCCC/C=C\CCCCCCCC(=O)OC[C@H](COP(=O)(O)OCCOc1ccc2c(c1)nc(N)c1nc(CCCC)n(CCO)c12)OC(=O)CCCCCCC/C=C\CCCCCCCC` [Example 1], the “TNF-α induction, in words” value is listed as “potent at inducing TNF-α” in assay [1] (FIG. 13) and “effective at inducing TNF-α” in assay [1] (FIG. 15, another occasion). The EC50 on human TLR8 (Table 1, FIG. 2, 24 h stimulation, aqueous formulations) worked out at 100 nM; on human TLR8 (Table 2, FIG. 4, another occasion, * = only very low levels of NFKB activation were detected) it was 800 nM; on human TLR8 (Table 3, FIG. 6, another occasion, * = only very low levels of NFKB activation were detected), 590 nM; on human TLR8 (Table 4, FIG. 8, another occasion), 710 nM. For the same molecule, the “hTLR8 agonist activity, in words” value on human TLR8 (Table 3, FIG. 6) is “agonist of both TLR7 and TLR8”; on human TLR8 (text on Table 1, FIG. 2) it was “significantly more potent as an agonist of hTLR7 and hTLR8 than Comparative Example 2”; at human TLR8 (text on Table 2, FIG. 4), “more active than Comparative Example 2 as an agonist of hTLR7 and hTLR8”. For the same molecule, the “IFN-α induction, in words” value in assay [2] (FIG. 10) is “equipotent at inducing IFN-α and these were more potent than Comparative Example 1 and Comparative Example 2 in this assay at a lower dose”; in assay [2] (FIG. 12, another occasion), “more potent at inducing IFN-α than Comparative Examples 1, 2 and 3”; in assay [2] (FIG. 14, another occasion), “very effective at inducing IFN-α”; in assay [2] (FIG. 16, another occasion), “good activity in inducing IFN-α”.
